Data on 1 molecule can be found in patent publication US20220153766A1, “CONDENSED TRICYCLIC COMPOUND USED AS KINASE INHIBITOR” (Hangzhou Innogate Pharma Co., Ltd., priority 2019, published 2022).

As a reminder, the IC50 is the concentration needed to halve the response being measured.

One assay deals with ALK (Homo sapiens, UniProt Q9UM73). In words: ALK kinase activity inhibition, Caliper mobility shift assay, method 2. The following applies: ALK 1.25 nM, ATP 30 μM. It counts as biochemical. The procedure: 2. ALK Kinase Activity Inhibition Experiment:
Method 2: Caliper mobility shift assay was used to measure ALK protein kinase activity. The method is basically the same as method 1, with individual parameters adjusted. The initial concentration of the compound is 1 mM, and sequentially diluted 4-fold to make 6 points (7 points for some individual compounds). Use a dispenser Echo 550 to transfer 250 nL of 100-fold final concentration of the compound to the target plate 3573, add 10 μL ALK with final concentration of 1.25 nM, incubate at room temperature for 10 minutes (the negative control well contains 10 μL kinase buffer and 250 nL 100% DMSO; the positive control well contains 10 μL kinase solution and 250 nL 100% DMSO). On the kinase ALK, add 15 μL of ATP with a final concentration of 30 μM and 3 μM of the substrate peptide No. 22 mixed solution to react for 25 minutes; add 30 μL of stop detection solution containing EDTA to stop the kinase reaction. Use Caliper EZ Reader to read the conversion rate. Inhibition rate %=(Average positive control conversion rate %−Sample conversion rate %/(Average positive control conversion rate %−Average negative control conversion rate %). Among them: negative control wells represent the conversion rate readings without enzyme activity; positive control wells represent the conversion rate readings of wells without compound inhibition. Take the log value of the concentration as the X-axis, and the percentage inhibition rate on the Y-axis. Log (inhibitor) vs. response—Variable slope of analysis software GraphPad Prism 5 was used to fit the curve to obtain the IC50 value of each compound on the enzyme activity. Calculation formula: Y=Bottom+(Top−Bottom)/(1+10^((Log IC50−X)*HillSlope)).

Assay [1] deals with Ba/F3_EGFR del19/T790M/C797S cells (Homo sapiens, UniProt P00533, T790M/C797S, cells depend on it, form not given). Kind of assay: Ba/F3_EGFR (del19-T790M-C797S) cell proliferation inhibition, CTG, method 1. It counts as cell-based. The following applies: 700 cells/well, 72 h, read-out: Ba/F3_EGFR (del19-T790M-C797S) cell proliferation inhibition (IC50 value) Method 1.
Ba/F3_EGFR del19/T790M/C797S cells, sequence (P00533 with tags, fused parts or gaps DEL746-750/T790M/C797S, form open): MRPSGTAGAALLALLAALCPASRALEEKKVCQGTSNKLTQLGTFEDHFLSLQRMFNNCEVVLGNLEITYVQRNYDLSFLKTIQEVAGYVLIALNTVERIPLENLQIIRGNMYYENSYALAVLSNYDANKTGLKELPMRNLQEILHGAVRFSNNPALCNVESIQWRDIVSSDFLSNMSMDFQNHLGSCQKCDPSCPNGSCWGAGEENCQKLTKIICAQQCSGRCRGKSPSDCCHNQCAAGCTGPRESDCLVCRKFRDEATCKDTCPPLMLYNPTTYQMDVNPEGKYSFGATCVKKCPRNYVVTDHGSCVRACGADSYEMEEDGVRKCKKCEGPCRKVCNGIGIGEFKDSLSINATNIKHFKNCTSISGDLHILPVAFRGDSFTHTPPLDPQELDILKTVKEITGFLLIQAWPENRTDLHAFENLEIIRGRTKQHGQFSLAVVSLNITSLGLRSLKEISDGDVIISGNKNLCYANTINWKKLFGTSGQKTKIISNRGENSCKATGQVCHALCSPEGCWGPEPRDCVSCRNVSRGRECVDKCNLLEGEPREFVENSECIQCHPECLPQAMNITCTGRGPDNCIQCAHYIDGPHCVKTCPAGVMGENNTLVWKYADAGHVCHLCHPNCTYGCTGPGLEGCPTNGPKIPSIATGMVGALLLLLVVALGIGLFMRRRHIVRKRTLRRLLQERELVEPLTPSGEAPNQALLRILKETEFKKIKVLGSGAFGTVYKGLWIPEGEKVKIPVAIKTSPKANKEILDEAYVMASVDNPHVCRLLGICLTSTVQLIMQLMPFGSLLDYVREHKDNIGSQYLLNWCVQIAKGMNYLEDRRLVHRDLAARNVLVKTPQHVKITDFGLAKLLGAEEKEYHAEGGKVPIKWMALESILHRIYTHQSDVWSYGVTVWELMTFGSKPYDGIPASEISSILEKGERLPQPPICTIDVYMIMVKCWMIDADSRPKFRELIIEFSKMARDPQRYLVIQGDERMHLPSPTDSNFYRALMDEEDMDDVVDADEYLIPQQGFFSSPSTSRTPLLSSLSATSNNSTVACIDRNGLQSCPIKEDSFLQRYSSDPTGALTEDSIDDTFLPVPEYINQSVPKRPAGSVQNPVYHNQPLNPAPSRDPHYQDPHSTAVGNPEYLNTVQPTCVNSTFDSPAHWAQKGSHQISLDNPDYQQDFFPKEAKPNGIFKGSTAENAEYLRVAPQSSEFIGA

ALK, sequence (Q9UM73 19-1620): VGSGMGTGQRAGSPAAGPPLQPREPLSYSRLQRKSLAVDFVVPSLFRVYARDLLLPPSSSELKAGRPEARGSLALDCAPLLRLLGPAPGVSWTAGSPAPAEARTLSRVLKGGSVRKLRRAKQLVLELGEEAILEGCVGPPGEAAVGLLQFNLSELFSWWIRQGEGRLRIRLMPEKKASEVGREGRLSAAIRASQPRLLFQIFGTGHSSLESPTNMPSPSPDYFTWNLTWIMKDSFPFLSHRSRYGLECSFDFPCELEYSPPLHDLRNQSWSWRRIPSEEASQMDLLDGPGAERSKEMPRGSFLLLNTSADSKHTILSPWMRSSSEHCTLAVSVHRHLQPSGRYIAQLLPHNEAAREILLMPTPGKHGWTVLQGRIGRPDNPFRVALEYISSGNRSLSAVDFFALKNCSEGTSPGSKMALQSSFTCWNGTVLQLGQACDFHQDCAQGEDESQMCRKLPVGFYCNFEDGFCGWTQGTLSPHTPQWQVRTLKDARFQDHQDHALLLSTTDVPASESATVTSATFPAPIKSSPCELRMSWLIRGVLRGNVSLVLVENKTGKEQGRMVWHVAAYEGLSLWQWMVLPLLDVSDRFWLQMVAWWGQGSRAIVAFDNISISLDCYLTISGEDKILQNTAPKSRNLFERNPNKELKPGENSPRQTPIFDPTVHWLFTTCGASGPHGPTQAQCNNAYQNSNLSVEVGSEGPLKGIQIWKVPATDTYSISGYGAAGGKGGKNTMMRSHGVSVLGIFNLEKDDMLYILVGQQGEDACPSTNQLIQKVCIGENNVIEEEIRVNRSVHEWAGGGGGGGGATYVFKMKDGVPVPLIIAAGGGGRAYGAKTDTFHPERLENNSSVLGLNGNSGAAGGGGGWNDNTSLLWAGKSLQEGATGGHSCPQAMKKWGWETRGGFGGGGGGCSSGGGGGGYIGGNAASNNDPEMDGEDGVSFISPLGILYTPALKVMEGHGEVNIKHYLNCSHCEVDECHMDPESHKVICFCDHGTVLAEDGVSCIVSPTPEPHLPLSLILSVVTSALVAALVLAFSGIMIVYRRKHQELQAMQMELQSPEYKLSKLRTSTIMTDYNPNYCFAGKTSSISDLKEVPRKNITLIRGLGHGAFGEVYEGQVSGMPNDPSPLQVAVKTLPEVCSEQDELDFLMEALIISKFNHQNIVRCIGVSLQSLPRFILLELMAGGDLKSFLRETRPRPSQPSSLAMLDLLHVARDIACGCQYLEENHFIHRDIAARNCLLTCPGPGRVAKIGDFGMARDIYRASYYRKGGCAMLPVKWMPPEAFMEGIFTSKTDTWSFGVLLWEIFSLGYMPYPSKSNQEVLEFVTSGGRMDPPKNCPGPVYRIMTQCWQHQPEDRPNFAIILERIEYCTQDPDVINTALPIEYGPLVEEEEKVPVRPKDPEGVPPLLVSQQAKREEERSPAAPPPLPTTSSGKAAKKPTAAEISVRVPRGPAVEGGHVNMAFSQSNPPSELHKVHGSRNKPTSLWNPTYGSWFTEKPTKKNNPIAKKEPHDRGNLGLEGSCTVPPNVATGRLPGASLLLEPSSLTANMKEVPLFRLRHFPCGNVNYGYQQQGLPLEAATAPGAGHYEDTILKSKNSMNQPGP

For the molecule `Cc1cc(Nc2ncc(Cl)c(Nc3ccccc3P(C)(C)=O)n2)cc2c1N1CCN(C3CCN(C)CC3)C[C@@H]1CO2` [Compound 27R], the IC50 at ALK lay within 1 to 50 nM. In addition, in assay [1], the GI50 was less than 20 nM.
